Measured values reported in publication PMC6066355, “Probing the binding site of novel selective positive allosteric modulators at the M1 muscarinic acetylcholine receptor” (Biochemical Pharmacology, 2018).
Substitutions are numbered along the chain they refer to. Like-named read-outs stand apart in the source and are kept apart here.

Assays:
Y179^ECL2A M1 mAChR = biological target: T1, Y179^ECL2A M1 mAChR (Homo sapiens, UniProt P11229, Y179A); experiment: IP-One (IP1) accumulation assay, FlpIn CHO cells; assay type: cell-based
T1 construct: expressed in transfected cells
T1 sequence (P11229 1-460 Y179A): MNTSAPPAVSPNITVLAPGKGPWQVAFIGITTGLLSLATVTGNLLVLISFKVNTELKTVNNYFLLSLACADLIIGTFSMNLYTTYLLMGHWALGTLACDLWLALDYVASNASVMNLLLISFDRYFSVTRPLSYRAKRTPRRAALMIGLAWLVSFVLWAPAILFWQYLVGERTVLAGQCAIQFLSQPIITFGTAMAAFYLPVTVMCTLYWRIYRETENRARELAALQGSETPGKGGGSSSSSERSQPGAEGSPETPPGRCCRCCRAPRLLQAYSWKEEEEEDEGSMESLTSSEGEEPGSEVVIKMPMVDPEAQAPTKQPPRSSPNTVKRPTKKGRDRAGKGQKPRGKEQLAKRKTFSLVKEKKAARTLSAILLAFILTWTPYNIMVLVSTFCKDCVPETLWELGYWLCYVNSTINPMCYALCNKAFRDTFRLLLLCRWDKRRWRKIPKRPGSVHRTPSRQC
Procedure: (§1) The IP-One assay kit (Cisbio) was used for the direct quantitative measurement of myo-Inositol 1 phosphate (IP1). Cells were seeded at 25,000 per well into 96-well transparent cell culture plates and incubated overnight at 37 °C. […] Cells were then lysed with IP1 lysis buffer (50 mM HEPES pH 7.0, 15 mM KF, 1.5% V/V Triton-X-100, 3% V/V FBS, 0.2% W/V BSA), and IP1 levels were measured by incubation of cell lysates with FRET reagents (the cryptate-labeled anti-IP1 antibody and the d2-labeled IP1 analogue) for 1 h at 37 °C. […] Signals were expressed as the FRET ratio: F = (fluorescence665 nm/fluorescence590 nm) × 10^4, and normalized to the response to maximal ACh concentration (100 µM).
(Eq. (2)) was used:(2) Y=Basal+Em-Basal/1+KA+A/τA where Em is the maximal possible system response and Basal is the response in the absence of agonist. [A] denotes the concentration of ligand, and KA represents its equilibrium dissociation constants. τ denotes the intrinsic efficacy of the ligand, which incorporates the total receptor density and the efficiency of stimulus-response coupling.
(§2) Functional interaction studies between orthosteric agonists and allosteric modulators in IP1 assays were analysed using the following operational model of allosterism and agonism (Eq. (3)):(3) E=Basal+Em-BasalAKB+αβB+τBBEC50/EC50KB+B+AKB+αβB+τBBEC50 where Em is the maximal possible system response, and Basal is the response in the absence of agonist. KB is the equilibrium dissociation constant of allosteric ligand, and EC50 is the concentration of orthosteric agonist required to achieve half maximal response. [A] and [B] denote concentrations of orthosteric and allosteric ligands, respectively. α and β denote allosteric effects on orthosteric ligand binding affinity and efficacy, respectively, and τB denotes the efficacy of allosteric ligand. This model assumes that ACh is a full agonist at the receptor in both the absence/presence of modulator and/or there is no efficacy modulation (i.e., β = 1).

Y82^2.61A M1 mAChR = biological target: T2, Y82^2.61A M1 mAChR (Homo sapiens, UniProt P11229, Y82A); experiment: Whole cell [3H]NMS binding inhibition/interaction assay (ACh ± PAM), FlpIn CHO cells
T2 construct: expressed in transfected cells
T2 sequence (P11229 1-460 Y82A): T1 sequence (P11229 1-460 Y179A) with Y82A, A179Y
Procedure: Saturation binding assays were performed to estimate the expression levels and equilibrium dissociation constant of the radioligand (KD). FlpIn CHO cells stably expressing the WT or mutant c-myc hM1 mAChRs were plated at the density of 25,000 per well of 96-well white clear bottom Isoplates (PerkinElmer Life Sciences, Boston, MA), and grown overnight at 37 °C. […] Atropine at the final concentration of 100 µM was used to determine non-specific binding. The assays were terminated by rapid removal of the radioligand, and two washes with 100 µl/well ice-cold 0.9% NaCl buffer.
All data were analysed using GraphPad Prism 7 (San Diego, CA). […] Binding interaction studies between orthosteric agonists and allosteric modulators were fitted to the following allosteric ternary complex model (Eq. (1)):(1) Y=BmaxD/D+KDKB/α^′B+KB1+I/KI+B/KB+αIB/KIKB where Bmax is the total number of receptors, [D], [B] and [I] denote the concentrations of radioligand, allosteric ligand, and orthosteric ligand, respectively, and KD, KB and KI represent their respective equilibrium dissociation constants. α′ and α are the cooperativity factors between the allosteric ligand and radioligand or orthosteric ligand, respectively.

WT M1 mAChR = biological target: T3, WT M1 mAChR (Homo sapiens, UniProt P11229); experiment: Receptor alkylation assay: IP1 accumulation after PBZ pre-treatment, CHO-hM1 cells; assay type: cell-based; settings: for Effect on maximal ACh response (potency of ACh increased): 10 µM PBZ pre-treatment, ACh a partial agonist; for αβ (functional cooperativity with ACh, antilog in brackets) / Logαβ (logarithm of functional cooperativity between ACh and modulator): alkylated with PBZ (10 µM pre-treatment); for Logαβ (logarithm of functional cooperativity between ACh and modulator): β constrained to 1
T3 construct: expressed in transfected cells
T3 sequence (P11229 1-460): T1 sequence (P11229 1-460 Y179A) with A179Y
Procedure: as §1
Cells were pre-treated with vehicle or the irreversible orthosteric alkylating agent, phenoxybenzamine (PBZ) for 30 min at 37 °C, 5% CO2 to reduce functional receptor availability, followed by three extensive washes with PBS. IP1 accumulation assays were then performed as described above.
as §2

Cn1cc(-c2ccc(COc3ccccc3-c3cc(=O)n(C4CCCCC4O)cn3)cc2)cn1 (stereo not drawn) [MIPS1780, 3-(2-hydroxycyclohexyl)-6-(2-((4-(1-methyl-1H-pyrazol-4-yl)-benzyl)oxy)phenyl)pyrimidin-4(3H)-one]
Modulation of ACh-stimulated IP1 accumulation (Y179^ECL2A M1 mAChR): abolished
Kb (Y82^2.61A M1 mAChR): 10 µM
Logα ACh (logarithm of binding cooperativity between ACh and modulator) (Y82^2.61A M1 mAChR; Y82^2.61A): 1.66 ± 0.19
Logα NMS (logarithm of binding cooperativity between [3H]NMS and modulator) (Y82^2.61A M1 mAChR; Y82^2.61A): −0.16 ± 0.06
α ACh (binding cooperativity with ACh, antilog in brackets) (Y82^2.61A M1 mAChR; Y82^2.61A): 45.7
α NMS (binding cooperativity with [3H]NMS, antilog in brackets) (Y82^2.61A M1 mAChR; Y82^2.61A): 0.69
Effect on maximal ACh response (potency of ACh increased) (WT M1 mAChR): no effect on the maximal agonist response
αβ (functional cooperativity with ACh, antilog in brackets) (WT M1 mAChR): 117
Logαβ (logarithm of functional cooperativity between ACh and modulator) (WT M1 mAChR): 2.07 ± 0.13

Cc1cnc(C(=O)N[C@H]2CCOC[C@@H]2O)cc1Cc1ccc(-c2cscn2)cc1 [PF-06767832, N-((3R,4S)-3-hydroxytetrahydro-2H-pyran-4-yl)-5-methyl-4-(4-(thiazol-4-yl)benzyl)pyridine-2-carboxamide]
Modulation of ACh-stimulated IP1 accumulation (Y179^ECL2A M1 mAChR): abolished
Logα ACh (logarithm of binding cooperativity between ACh and modulator) (Y82^2.61A M1 mAChR; Y82^2.61A): 1.53 ± 0.11
Logα NMS (logarithm of binding cooperativity between [3H]NMS and modulator) (Y82^2.61A M1 mAChR; Y82^2.61A): −0.16 ± 0.02
α ACh (binding cooperativity with ACh, antilog in brackets) (Y82^2.61A M1 mAChR; Y82^2.61A): 30.9
α NMS (binding cooperativity with [3H]NMS, antilog in brackets) (Y82^2.61A M1 mAChR; Y82^2.61A): 0.62
Kb (Y82^2.61A M1 mAChR; Y82^2.61A, allosteric ternary complex model, 0.6 nM [3H]NMS, read-out: pKB (negative logarithm of the allosteric modulator equilibrium dissociation constant) (converted)): 2.45 µM
Effect on maximal ACh response (potency of ACh increased) (WT M1 mAChR): no effect on the maximal agonist response
αβ (functional cooperativity with ACh, antilog in brackets) (WT M1 mAChR): 144
Logαβ (logarithm of functional cooperativity between ACh and modulator) (WT M1 mAChR): 2.16 ± 0.11

Cn1cc(-c2ccc(Cn3cc(C(=O)N[C@H]4CCCC[C@@H]4O)c4c(F)cc(F)cc43)cn2)cn1 [VU6004256, 4,6-difluoro-N-(1S,2S)-2-hydroxycyclohexyl-1-((6-(1-methyl-1H-pyrazol-4-yl)pyridine-3-yl)methyl)-1H-indole-3-carboxamide]
Modulation of ACh-stimulated IP1 accumulation (Y179^ECL2A M1 mAChR): abolished
Kb (Y82^2.61A M1 mAChR): 2.24 µM
Logα ACh (logarithm of binding cooperativity between ACh and modulator) (Y82^2.61A M1 mAChR; Y82^2.61A): 1.08 ± 0.13
Logα NMS (logarithm of binding cooperativity between [3H]NMS and modulator) (Y82^2.61A M1 mAChR; Y82^2.61A): −0.09 ± 0.03
α ACh (binding cooperativity with ACh, antilog in brackets) (Y82^2.61A M1 mAChR; Y82^2.61A): 11.2
α NMS (binding cooperativity with [3H]NMS, antilog in brackets) (Y82^2.61A M1 mAChR; Y82^2.61A): 0.76
Effect on maximal ACh response (potency of ACh increased) (WT M1 mAChR): no effect on the maximal agonist response
αβ (functional cooperativity with ACh, antilog in brackets) (WT M1 mAChR): 91
Logαβ (logarithm of functional cooperativity between ACh and modulator) (WT M1 mAChR): 1.96 ± 0.22
